# Laboratory results from BindingDB's records for doi:10.1016/j.bmcl.2008.08.034 (University of Illinois At Chicago, 2008).
# Target: T1, 1-deoxy-D-xylulose-5-phosphate synthase (Mycobacterium tuberculosis (strain ATCC 25618 / H37Rv), UniProt P9WNS3)
# T1 sequence (P9WNS3 whole entry): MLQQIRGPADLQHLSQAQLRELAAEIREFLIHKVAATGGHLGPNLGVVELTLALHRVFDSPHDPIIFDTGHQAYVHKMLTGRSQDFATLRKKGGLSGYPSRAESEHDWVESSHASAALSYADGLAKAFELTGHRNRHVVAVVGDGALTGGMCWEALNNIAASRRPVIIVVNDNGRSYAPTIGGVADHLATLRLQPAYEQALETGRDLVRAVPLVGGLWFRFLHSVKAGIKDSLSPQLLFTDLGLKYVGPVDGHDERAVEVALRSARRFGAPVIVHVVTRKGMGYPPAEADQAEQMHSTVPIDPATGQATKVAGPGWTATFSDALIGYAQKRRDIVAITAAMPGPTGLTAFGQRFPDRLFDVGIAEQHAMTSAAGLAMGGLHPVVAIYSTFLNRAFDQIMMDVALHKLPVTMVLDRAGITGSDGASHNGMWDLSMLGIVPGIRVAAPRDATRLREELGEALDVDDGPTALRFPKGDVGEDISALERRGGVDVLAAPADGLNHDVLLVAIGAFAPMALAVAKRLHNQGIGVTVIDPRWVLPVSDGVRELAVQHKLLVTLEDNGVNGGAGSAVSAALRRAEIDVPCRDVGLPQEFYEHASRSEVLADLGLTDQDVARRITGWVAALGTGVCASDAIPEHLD
# Experiment: Inhibition of Mycobacterium tuberculosis cloned 1-deoxy-D-xylulose-5-phosphate synthase expressed in Escherichia coli
row,SMILES,IC50 [µM]
1,"COCc1cc(O)n2nc(C)c(-c3ccc(Cl)cc3)c2n1 [3-(4-chlorophenyl)-5-(methoxymethyl)-2-methylpyrazolo[1,5-a]pyrimidin-7(4H)-one]",> 200
2,"Cc1cc(=O)n2[nH]c(C(F)(F)F)c(-c3ccc(Br)cc3)c2n1 [3-(4-bromophenyl)-5-methyl-2-(trifluoromethyl)pyrazolo[1,5-a]pyrimidin-7(4H)-one]",> 200
3,"O=c1cc(CCl)nc2c(-c3ccccc3)c[nH]n12 [5-(chloromethyl)-3-phenylpyrazolo[1,5-a]pyrimidin-7(4H)-one]",> 200
4,"Cc1cc(=O)n2[nH]cc(-c3ccc(Cl)cc3)c2n1 [3-(4-chlorophenyl)-5-methylpyrazolo[1,5-a]pyrimidin-7(4H)-one]",> 200
5,"CCCc1c(-c2ccccc2)nc2c(-c3ccccc3)c(C)[nH]n2c1=O [2-methyl-3,5-diphenyl-6-propylpyrazolo[1,5-a]pyrimidin-7(4H)-one]",17.9
6,Cc1nc2c(-c3ccc(Cl)cc3)c(C(F)(F)F)[nH]n2c(=O)c1Cc1ccccc1,> 200
7,"COCc1cc(=O)n2[nH]cc(-c3ccc(Cl)cc3)c2n1 [3-(4-chlorophenyl)-5-(methoxymethyl)pyrazolo[1,5-a]pyrimidin-7(4H)-one]",> 200
